The target of the experiment is T1, catechol-O-methyltransferase (COMT) (Homo sapiens, UniProt P21964).
T1 construct: M51A variant) was expressed in HEK 293F cells
T1 sequence (P21964 52-271 limits assumed): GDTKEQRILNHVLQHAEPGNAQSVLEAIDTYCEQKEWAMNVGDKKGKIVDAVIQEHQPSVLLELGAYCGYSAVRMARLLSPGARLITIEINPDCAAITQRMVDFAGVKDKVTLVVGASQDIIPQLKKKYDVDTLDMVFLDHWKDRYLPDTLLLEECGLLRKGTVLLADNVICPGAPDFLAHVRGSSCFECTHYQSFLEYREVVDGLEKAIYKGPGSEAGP
The experiment is described as follows: COMT inhibition assay (HTRF, production of SAH from SAM). The note with it: table does not say MB-COMT or S-COMT. The class given is biochemical. As for the experimental part:
The ability of compounds to inhibit the activity of catechol-O-methyltransferase (COMT) was determined by a homogenous time-resolved fluorescent (HTRF) assay (Lina et al, 2012; kit from CisBio, Codolet, France). This assay measures the production of S-adenosyl homocysteine (SAH) from the methyl donor S-adenosyl methionine. Recombinant human membrane bound COMT (MB-COMT; M51A variant) was expressed in HEK 293F cells using 293Fectin (Life Technologies, Gent, Belgium) and membranes prepared. The membranes were re-suspended in buffer (20 mM Tris/HCl pH 7; 10 mM glycerol; 2 mM MgCl2; 10 mM NaCl), aliquoted and stored at −80° C. Recombinant human soluble COMT(S-COMT), Val158 variant and a hexa-His tag on the N-terminus, was purified using Ni-NTA chromatography, the His tag removed and stored in buffer as above.
For the human MB-COMT assay, membranes (62 ng/well) were incubated with SAM (20 μM final, CisBio) and dopamine (1.5 μM final; Sigma H8502, Diegem, Belgium) in the presence or absence of varying concentrations (typically 10 concentrations ranging from 10 ? M to 0.1 nM) of compound for 40 min at 37° C. in 384-well microtiter plates (10 ? l per well final volume). The reaction was terminated by the addition of acylation buffer and the amount of SAH produced determined according to manufacturer's instructions. Specific inhibition as that inhibited by a high concentration of tolcapone and all experiments were validated using a control curve to tolcapone.
The human S-COMT assay was performed as above except that 0.15 ng enzyme/well was incubated with SAM ([…]) and dopamine (100 μM final) for 15 min at 37° C. and SAH production determined.
HTRF readings were performed using a Perkin Elmer Envision and results expressed as concentration of SAH produced using a standard curve. Results were analyzed using non-linear regression to the 4-parameter logistic equation and pIC50 (−log 10 concentration of drug which inhibits enzyme activity/SAH production by 50%) determined.

The results in this text go back to patent US10934283B2, “COMT inhibiting methods and compositions” (LIEBER INSTITUTE FOR BRAIN DEVELOPMENT, priority 2015, dated 2021).

Structures can show the parent of a compound that is named as a salt.

For `COc1cccc(OC)c1CN1CCn2cc(O)c(=O)cc2C1` [Example 46, 2-(2,6-dimethoxybenzyl)-7-hydroxy-1,2,3,4-tetrahydro-8H-pyrido[1,2-a]pyrazin-8-one], the “Activity range (pIC50)” value is “++ (two plus signs (++) is associated with a pIC50 of from about 6 to 7)”.
With `CCC(c1ccccc1)N1CCn2cc(O)c(=O)cc2C1` (stereo not drawn) [Example 89, 7-hydroxy-2-(1-phenylpropyl)-1,2,3,4-tetrahydro-8H-pyrido[1,2-a]pyrazin-8-one], the “Activity range (pIC50)” value is on record as “++ (two plus signs (++) is associated with a pIC50 of from about 6 to 7)”.
Regarding `O=c1cc2n(cc1O)CCN(C1(c3ccccc3Cl)CC1)C2` [Example 106, 2-[1-(2-chlorophenyl)cyclopropyl]-7-hydroxy-3,4-dihydro-1H-pyrido[1,2-a]pyrazin-8-one], the “Activity range (pIC50)” value is “+++ (three plus signs (+++) is associated with a pIC50 of above about 7)”.
For `O=c1cc2n(cc1O)CCN(CC1CCCCCCC1)C2` [Example 26, 2-(cyclooctylmethyl)-7-hydroxy-1,2,3,4-tetrahydro-8H-pyrido[1,2-a]pyrazin-8-one], the “Activity range (pIC50)” value is “++ (two plus signs (++) is associated with a pIC50 of from about 6 to 7)”.
The entry for `O=c1cc2n(cc1O)CCN(CCCc1ccccc1)C2` [Example 30, 7-hydroxy-2-(3-phenylpropyl)-1,2,3,4-tetrahydro-8H-pyrido[1,2-a]pyrazin-8-one] is “++ (two plus signs (++) is associated with a pIC50 of from about 6 to 7)”; for `O=c1cc2n(cc1O)CCN(c1nc3ccccc3s1)C2` [Example 108, 2-(1,3-benzothiazol-2-yl)-7-hydroxy-3,4-dihydro-1H-pyrido[1,2-a]pyrazin-8-one] it is “++ (two plus signs (++) is associated with a pIC50 of from about 6 to 7)”.
Regarding `O=c1cc2n(cc1O)CCN(C1(c3ccccc3)CC1)C2` [Example 104, 7-hydroxy-2-(1-phenylcyclopropyl)-3,4-dihydro-1H-pyrido[1,2-a]pyrazin-8-one], the “Activity range (pIC50)” value was “+++ (three plus signs (+++) is associated with a pIC50 of above about 7)”.
As to `CC1Cn2cc(O)c(=O)cc2CN1Cc1ccccc1` (stereo not drawn) [Example 131, 2-benzyl-7-hydroxy-3-methyl-1,2,3,4-tetrahydro-8H-pyrido[1,2-a]pyrazin-8-one], the “Activity range (pIC50)” value is given as “++ (two plus signs (++) is associated with a pIC50 of from about 6 to 7)”.
For the compound `O=c1cc2n(cc1O)CCN(Cc1c(F)cccc1F)C2` [Example 62, 2-[(2,6-difluorophenyl)methyl]-7-hydroxy-3,4-dihydro-1H-pyrido[1,2-a]pyrazin-8-one], the “Activity range (pIC50)” value is “+++ (three plus signs (+++) is associated with a pIC50 of above about 7)”.
The value for `Cc1ccccc1CN1CCn2cc(O)c(=O)cc2C1` [Example 33, 7-hydroxy-2-(2-methylbenzyl)-1,2,3,4-tetrahydro-8H-pyrido[1,2-a]pyrazin-8-one] was “+++ (three plus signs (+++) is associated with a pIC50 of above about 7)”.
For the compound `O=c1c(O)cn2c(c1Cl)CN(Cc1c(F)cccc1Cl)CC2` [Example 133, 9-chloro-2-(2-chloro-6-fluorobenzyl)-7-hydroxy-1,2,3,4-tetrahydro-8H-pyrido[1,2-a]pyrazin-8-one], the “Activity range (pIC50)” value is on record as “+++ (three plus signs (+++) is associated with a pIC50 of above about 7)”.
The entry for `CC1(C)Cn2cc(O)c(=O)cc2CN1Cc1ccccc1Cl` [Example 65, 2-[(2-chlorophenyl)methyl]-7-hydroxy-3,3-dimethyl-1,4-dihydropyrido[1,2-a]pyrazin-8-one] is “++ (two plus signs (++) is associated with a pIC50 of from about 6 to 7)”.
On to `O=c1cc2n(cc1O)CCN(Cc1ccc(C3CC3)cc1)C2` [Example 23, 2-(4-cyclopropylbenzyl)-7-hydroxy-1,2,3,4-tetrahydro-8H-pyrido[1,2-a]pyrazin-8-one], for which the “Activity range (pIC50)” value is “+++ (three plus signs (+++) is associated with a pIC50 of above about 7)”.
Take `O=c1cc2n(cc1O)CCN(Cc1c[nH]nc1-c1ccccc1)C2` [Example 45, 7-hydroxy-2-[(3-phenyl-1H-pyrazol-4-yl)methyl]-1,2,3,4-tetrahydro-8H-pyrido[1,2-a]pyrazin-8-one]: the “Activity range (pIC50)” value was “++ (two plus signs (++) is associated with a pIC50 of from about 6 to 7)”.
For `O=c1cc2n(cc1O)CCN(CC1CCCCC1)C2` [Example 22, 2-(cyclohexylmethyl)-7-hydroxy-1,2,3,4-tetrahydro-8H-pyrido[1,2-a]pyrazin-8-one], the “Activity range (pIC50)” value is listed as “++ (two plus signs (++) is associated with a pIC50 of from about 6 to 7)”.
Consider `O=c1c(O)cn2c(c1I)CN(Cc1ccccc1Cl)CC2` [Example 140, 2-[(2-chlorophenyl)methyl]-7-hydroxy-9-iodo-3,4-dihydro-1H-pyrido[1,2-a]pyrazin-8-one], for which the “Activity range (pIC50)” value was “+ (a single plus (+) is associated with a pIC50 of from about 4.5 to 6)”.
As for `O=c1cc2n(cc1O)CC(Cc1ccccc1)N(Cc1c(Cl)cccc1Cl)C2` (stereo not drawn) [Example 129, 3-benzyl-2-(2,6-dichlorobenzyl)-7-hydroxy-1,2,3,4-tetrahydro-8H-pyrido[1,2-a]pyrazin-8-one], the “Activity range (pIC50)” value is on record as “++ (two plus signs (++) is associated with a pIC50 of from about 6 to 7)”.
With `CC(c1cc(Cl)ccc1Cl)N1CCn2cc(O)c(=O)cc2C1` (stereo not drawn) [Example 69, 2-[1-(2,5-dichlorophenyl)ethyl]-7-hydroxy-1,2,3,4-tetrahydro-8H-pyrido[1,2-a]pyrazin-8-one], the “Activity range (pIC50)” value is on record as “+++ (three plus signs (+++) is associated with a pIC50 of above about 7)”.
Turning to `O=c1cc2n(cc1O)CCN(C1CCc3c(Cl)cccc31)C2` (stereo not drawn) [Example 73, 2-(4-chloro-2,3-dihydro-1H-inden-1-yl)-7-hydroxy-1,2,3,4-tetrahydro-8H-pyrido[1,2-a]pyrazin-8-one], the “Activity range (pIC50)” value is “+++ (three plus signs (+++) is associated with a pIC50 of above about 7)”.
The value for `O=c1cc2n(cc1O)CCN(Cc1cccc3cccnc13)C2` [Example 14, 7-hydroxy-2-(quinolin-8-ylmethyl)-1,2,3,4-tetrahydro-8H-pyrido[1,2-a]pyrazin-8-one] was “+++ (three plus signs (+++) is associated with a pIC50 of above about 7)”; that for `O=c1cc2n(cc1O)CCN(Cc1ccc(Br)cc1Cl)C2` [Example 63, 2-[(4-bromo-2-chloro-phenyl)methyl]-7-hydroxy-3,4-dihydro-1H-pyrido[1,2-a]pyrazin-8-one hydrochloride] was “+++ (three plus signs (+++) is associated with a pIC50 of above about 7)”; that for `CCCCC(c1ccccc1)N1CCn2cc(O)c(=O)cc2C1` (stereo not drawn) [Example 78, 7-hydroxy-2-(1-phenylpentyl)-1,2,3,4-tetrahydro-8H-pyrido[1,2-a]pyrazin-8-one] was “+++ (three plus signs (+++) is associated with a pIC50 of above about 7)”.
With `O=c1cc2n(cc1O)CCN(Cc1cccc(OC(F)(F)F)c1)C2` [Example 6, 7-hydroxy-2-[3-(trifluoromethoxy)benzyl]-1,2,3,4-tetrahydro-8H-pyrido[1,2-a]pyrazin-8-one], the “Activity range (pIC50)” value is recorded as “+++ (three plus signs (+++) is associated with a pIC50 of above about 7)”.
With `CCc1ccc(CN2CCn3cc(O)c(=O)cc3C2C2CCOCC2)cc1` (stereo not drawn) [Example 125, 2-(4-ethylbenzyl)-7-hydroxy-1-(tetrahydro-2H-pyran-4-yl)-1,2,3,4-tetrahydro-8H-pyrido[1,2-a]pyrazin-8-one], the “Activity range (pIC50)” value is listed as “+++ (three plus signs (+++) is associated with a pIC50 of above about 7)”.
Consider `O=c1cc2n(cc1O)CCN(Cc1ccccc1Cl)C2` [Example 58, 2-[(2-chlorophenyl)methyl]-7-hydroxy-3,4-dihydro-1H-pyrido[1,2-a]pyrazin-8-one], for which the “Activity range (pIC50)” value is listed as “+++ (three plus signs (+++) is associated with a pIC50 of above about 7)”.
On to `COc1cccc(C(C)N2CCn3cc(O)c(=O)cc3C2)c1` (stereo not drawn) [Example 83, 7-hydroxy-2-[1-(3-methoxyphenyl)ethyl]-1,2,3,4-tetrahydro-8H-pyrido[1,2-a]pyrazin-8-one], for which the “Activity range (pIC50)” value is on record as “++ (two plus signs (++) is associated with a pIC50 of from about 6 to 7)”.
Consider `O=c1cc2n(cc1O)CCN(Cc1ccc(Cl)c(Cl)c1)C2` [Example 25, 2-(3,4-dichlorobenzyl)-7-hydroxy-1,2,3,4-tetrahydro-8H-pyrido[1,2-a]pyrazin-8-one], for which the “Activity range (pIC50)” value is listed as “+++ (three plus signs (+++) is associated with a pIC50 of above about 7)”.
